From patent US9187429B2, “Phenyl-tetrahydroisoquinoline derivatives” (Hoffmann-La Roche Inc., priority 2012, dated 2015)
Counter-ions that a name gives are not always drawn.

Experiments:
human CYP11B1 = human CYP11B1 (Homo sapiens (Human), UniProt P15538); experiment: G-402 cellular enzyme assay, human CYP11B1 (cortisol release); format: cell-based; conditions: G-402 cells expressing human CYP11B1, 1 μM Deoxycortisol
From the text: (§1) The expression plasmids contains the ORF for either human/cyno CYP11B1 or CYP11B2 under the control of a suitable promoter (CMV-promoter) and a suitable resistance marker (neomycin). Using standard techniques the expression plasmid is transfected into G-402 cells and these cells are then selected for expressing the given resistance markers. Individual cell-clones are then selected and assessed for displaying the desired enzymatic activity using 11-Deoxycorticosterone (Cyp 11B2) or 11-Deoxycortisol (Cyp 11B1) as a substrate.
(§2) G-402 cells expressing CYP11 constructs were established as described above and maintained in McCoy's 5a Medium Modified, ATCC Catalog No. 30-2007 containing 10% FCS and 400 μg/ml G418 (Geneticin) at 37° C. under an atmosphere of 5% CO2/95% air. […] For assaying enzymatic activity, cells were plated onto 96 well plates and incubated for 16 h. An aliquot of the supernatant is then transferred and analyzed for the concentration of the expected product (Aldosterone for CYP11B2; Cortisol for CYP11B1). The concentrations of these steroids can be determined using HTRF assays from CisBio analyzing either Aldosterone or Cortisol.
(§3) Inhibition of the release of produced steroids can be used as a measure of the respective enzyme inhibition by test compounds added during the cellular enzyme assay. The dose dependent inhibition of enzymatic activity by a compound is calculated by means of plotting added inhibitor concentrations (x-axes) vs. measured steroid/product level (y-axes). The inhibition is then calculated by fitting the following 4-parameter sigmoidal function (Morgan-Mercer-Flodin (MMF) model) to the raw data points using the least squares method:
(§4) [formula] wherein, A is the maximum y value, B is the EC50 factor determined using XLFit, C is the minimum y value and D is the slope value.
(§5) EC50 values for compounds claimed herein were tested with the G402-based assay system described. Cyp 11B2 enzyme activity was tested in presence of 1 μM Deoxycorticosterone and variable amounts of inhibitors; Cyp 11B1 enzyme activity was tested in presence of 1 μM Deoxycortisol and variable amounts of inhibitors.

CYP11B2 = CYP11B2 (Homo sapiens (Human), UniProt P19099); experiment: G-402 cellular enzyme assay, human CYP11B2 (aldosterone release); format: cell-based; conditions: G-402 cells expressing human CYP11B2, 1 μM Deoxycorticosterone
From the text: as §1, §2, §3, §4, §5

Chain of human CYP11B1 (P15538 25-503): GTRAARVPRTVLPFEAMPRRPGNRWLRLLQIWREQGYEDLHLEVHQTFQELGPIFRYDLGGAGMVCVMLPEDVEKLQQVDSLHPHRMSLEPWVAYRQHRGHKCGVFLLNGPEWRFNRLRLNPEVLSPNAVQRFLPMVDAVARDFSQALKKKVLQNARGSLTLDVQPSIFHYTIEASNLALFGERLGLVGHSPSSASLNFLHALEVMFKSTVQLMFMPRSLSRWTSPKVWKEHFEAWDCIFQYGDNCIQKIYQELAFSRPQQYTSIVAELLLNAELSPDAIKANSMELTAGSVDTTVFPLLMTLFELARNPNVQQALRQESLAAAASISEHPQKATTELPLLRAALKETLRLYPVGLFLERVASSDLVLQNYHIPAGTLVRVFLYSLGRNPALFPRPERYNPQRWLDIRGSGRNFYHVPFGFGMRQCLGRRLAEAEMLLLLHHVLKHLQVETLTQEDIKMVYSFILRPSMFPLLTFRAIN
Chain of CYP11B2 (P19099 25-503): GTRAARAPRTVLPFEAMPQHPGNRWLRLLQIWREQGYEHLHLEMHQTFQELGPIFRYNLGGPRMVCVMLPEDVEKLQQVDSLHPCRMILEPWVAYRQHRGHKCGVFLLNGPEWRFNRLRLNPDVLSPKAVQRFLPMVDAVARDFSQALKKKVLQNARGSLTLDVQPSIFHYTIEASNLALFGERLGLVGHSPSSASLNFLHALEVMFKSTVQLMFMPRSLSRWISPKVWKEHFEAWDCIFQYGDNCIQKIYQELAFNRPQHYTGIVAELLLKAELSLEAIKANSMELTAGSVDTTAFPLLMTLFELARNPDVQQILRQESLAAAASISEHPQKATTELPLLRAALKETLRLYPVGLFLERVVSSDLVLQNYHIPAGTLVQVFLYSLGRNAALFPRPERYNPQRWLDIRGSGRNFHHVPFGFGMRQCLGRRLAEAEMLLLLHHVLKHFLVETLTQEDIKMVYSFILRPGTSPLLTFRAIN

`CCC(=O)NC1CCCc2c(-c3ccc(F)c(F)c3)cncc21` (racemic) [Example 44, (rac)-N-(4-(3,4-Difluorophenyl)-5,6,7,8-tetrahydroisoquinolin-8-yl)propionamide] was tested, and the EC50 (human CYP11B1) was 826 nM and the EC50 (CYP11B2) was 47 nM.
In the case of `CCC(=O)NC1CCCc2c(-c3ccc(Cl)c(Cl)c3)cncc21` (racemic) [Example 45, (rac)-N-(4-(3,4-Dichlorophenyl)-5,6,7,8-tetrahydroisoquinolin-8-yl)propionamide], the EC50 (human CYP11B1) is reported as 177 nM and the EC50 (CYP11B2) is reported as 3 nM.
Molecule `CCC(=O)NC1CCc2c(-c3ccc(C(F)(F)F)cc3)cncc21` (racemic) [Example 49, (rac)-N-(4-(4-(Trifluoromethyl)phenyl)-6,7-dihydro-5H-cyclopenta[c]pyridin-7-yl)propionamide] has an EC50 (human CYP11B1) of 4040 nM and an EC50 (CYP11B2) of 79 nM.
Work on `CCC(=O)NC1CCc2c(-c3ccc(Cl)c(F)c3)cncc21` (racemic) [Example 55, (rac)-N-(4-(4-Chloro-3-fluorophenyl)-6,7-dihydro-5H-cyclopenta[c]pyridin-7-yl)propionamide] yielded an EC50 (human CYP11B1) of 184 nM and an EC50 (CYP11B2) of 12 nM.
Molecule `CCC(=O)NC1CCc2c(-c3ccc(F)c(C)c3)cncc21` (racemic) [Example 58, (rac)-N-(4-(4-Fluoro-3-methylphenyl)-6,7-dihydro-5H-cyclopenta[c]pyridin-7-yl)propionamide] has an EC50 (human CYP11B1) of 156 nM and an EC50 (CYP11B2) of 10 nM.
With `CCC(=O)NC1CCc2c(-c3ccc(C(F)(F)F)cc3F)cncc21` (racemic) [Example 61, (rac)-N-(4-(2-Fluoro-4-(trifluoromethyl)phenyl)-6,7-dihydro-5H-cyclopenta[c]pyridin-7-yl)propionamide] the EC50 (human CYP11B1) was 3610 nM and the EC50 (CYP11B2) was 44 nM.
For `CCS(=O)(=O)NC1CCc2c(-c3ccc(C(F)(F)F)cc3)cncc21` (racemic) [Example 64, (rac)-N-(4-(4-(Trifluoromethyl)phenyl)-6,7-dihydro-5H-cyclopenta[c]pyridin-7-yl)ethanesulfonamide], the EC50 (human CYP11B1) was 12700 nM and the EC50 (CYP11B2) was 730 nM.
For `CCS(=O)(=O)NC1CCc2c(-c3ccc(C(F)(F)F)c(F)c3)cncc21` (racemic) [Example 71, (rac)-N-(4-(3-Fluoro-4-(trifluoromethyl)phenyl)-6,7-dihydro-5H-cyclopenta[c]pyridin-7-yl)ethanesulfonamide], the EC50 (human CYP11B1) was 3020 nM and the EC50 (CYP11B2) was 242 nM.
With `OC1CCc2c(-c3ccc(C(F)(F)F)cc3F)cncc21` (racemic) [Example 80, (rac)-4-(2-Fluoro-4-(trifluoromethyl)phenyl)-6,7-dihydro-5H-cyclopenta[c]pyridin-7-ol] the EC50 (human CYP11B1) was 427 nM and the EC50 (CYP11B2) was 4.5 nM.
With `N#Cc1ccc(-c2cncc3c2CCC3O)cc1` (racemic) [Example 81, (rac)-4-(7-Hydroxy-6,7-dihydro-5H-cyclopenta[c]pyridin-4-yl)benzonitrile] the EC50 (human CYP11B1) was 12 nM and the EC50 (CYP11B2) was 1.3 nM.
Work on `OC1CCc2c(-c3ccc(C(F)(F)F)c(F)c3)cncc21` (racemic) [Example 82, (rac)-4-(3-Fluoro-4-(trifluoromethyl)phenyl)-6,7-dihydro-5H-cyclopenta[c]pyridin-7-ol] yielded an EC50 (human CYP11B1) of 71 nM and an EC50 (CYP11B2) of 5.2 nM.
In the case of `OC1CCc2c(-c3ccc(C(F)(F)F)cc3)cncc21` (racemic) [Example 83, (rac)-4-(4-(Trifluoromethyl)phenyl)-6,7-dihydro-5H-cyclopenta[c]pyridin-7-ol], the EC50 (human CYP11B1) is reported as 740 nM and the EC50 (CYP11B2) is reported as 16.9 nM.
Work on `CC1(O)CCc2c(-c3ccc(C(F)(F)F)cc3)cncc21` (racemic) [Example 84, (rac)-7-Methyl-4-(4-(trifluoromethyl)phenyl)-6,7-dihydro-5H-cyclopenta[c]pyridin-7-ol] yielded an EC50 (human CYP11B1) of 5 nM and an EC50 (CYP11B2) of 4.8 nM.
Molecule `NC1CCc2c(-c3ccc(C(F)(F)F)c(F)c3)cncc21` (racemic) [Example 89, (rac)-4-(3-Fluoro-4-trifluoromethyl-phenyl)-6,7-dihydro-5H-[2]pyrindin-7-ylamine] has an EC50 (human CYP11B1) of 1380 nM and an EC50 (CYP11B2) of 54.7 nM.
`CCC(=O)NC1CCc2c(-c3ccc(C(F)(F)F)c(F)c3)cncc21` (racemic) [Example 90, (rac)-N-(4-(3-Fluoro-4-(trifluoromethyl)phenyl)-6,7-dihydro-5H-cyclopenta[c]pyridin-7-yl)propionamide] was tested, and the EC50 (human CYP11B1) was 1900 nM and the EC50 (CYP11B2) was 26.7 nM.
In the case of `O=S(=O)(NC1CCc2c(-c3ccc(C(F)(F)F)c(F)c3)cncc21)C1CC1` (racemic) [Example 91, (rac)-Cyclopropanesulfonic acid [4-(3-fluoro-4-trifluoromethyl-phenyl)-6,7-dihydro-5H-[2]pyrindin-7-yl]-amide], the EC50 (human CYP11B1) is reported as 389 nM and the EC50 (CYP11B2) is reported as 301 nM.
With `CCC(=O)OC1CCc2c(-c3ccc(C(F)(F)F)c(F)c3)cncc21` (racemic) [Example 92, (rac)-Propionic acid 4-(3-fluoro-4-trifluoromethyl-phenyl)-6,7-dihydro-5H-[2]pyrindin-7-yl ester] the EC50 (human CYP11B1) was 441 nM and the EC50 (CYP11B2) was 16.4 nM.
Molecule `NC1CCc2c(-c3ccc(C(F)(F)F)cc3)cncc21` (racemic) [Example 93, (rac)-4-(4-Trifluoromethyl-phenyl)-6,7-dihydro-5H-[2]pyrindin-7-ylamine] has an EC50 (human CYP11B1) of 364 nM and an EC50 (CYP11B2) of 86.3 nM.
`O=S(=O)(NC1CCc2c(-c3ccc(C(F)(F)F)cc3)cncc21)C1CC1` (racemic) [Example 94, (rac)-Cyclopropanesulfonic acid [4-(4-trifluoromethyl-phenyl)-6,7-dihydro-5H-[2]pyrindin-7-yl]-amide] gave an EC50 (human CYP11B1) of 2330 nM and an EC50 (CYP11B2) of 148 nM.
Work on `CS(=O)(=O)NC1CCc2c(-c3ccc(C(F)(F)F)cc3)cncc21` (racemic) [Example 95, (rac)-N-[4-(4-Trifluoromethyl-phenyl)-6,7-dihydro-5H-[2]pyrindin-7-yl]-methanesulfonamide] yielded an EC50 (human CYP11B1) of 1960 nM and an EC50 (CYP11B2) of 1800 nM.
For `CCCS(=O)(=O)NC1CCc2c(-c3ccc(C(F)(F)F)cc3)cncc21` (racemic) [Example 96, (rac)-Propane-1-sulfonic acid [4-(4-trifluoromethyl-phenyl)-6,7-dihydro-5H-[2]pyrindin-7-yl]-amide], the EC50 (human CYP11B1) was 3870 nM and the EC50 (CYP11B2) was 373 nM.
With `CC(C)(C)OC(=O)COC1CCc2c(-c3ccc(C(F)(F)F)cc3)cncc21` (racemic) [Example 97, (rac)-tert-Butyl 2-(4-(4-(trifluoromethyl)phenyl)-6,7-dihydro-5H-cyclopenta[c]pyridin-7-yloxy)acetate] the EC50 (human CYP11B1) was 72.4 nM and the EC50 (CYP11B2) was 1.4 nM.
`COC(=O)COC1CCc2c(-c3ccc(C(F)(F)F)cc3)cncc21` (racemic) [Example 98, (rac)-Methyl 2-(4-(4-(trifluoromethyl)phenyl)-6,7-dihydro-5H-cyclopenta[c]pyridin-7-yloxy)acetate] gave an EC50 (human CYP11B1) of 628 nM and an EC50 (CYP11B2) of 19.6 nM.
With `O=C(O)COC1CCc2c(-c3ccc(C(F)(F)F)cc3)cncc21` (racemic) [Example 99, (rac)-2-(4-(4-(Trifluoromethyl)phenyl)-6,7-dihydro-5H-cyclopenta[c]pyridin-7-yloxy)acetic acid hydrochloride] the EC50 (human CYP11B1) was 1190 nM and the EC50 (CYP11B2) was 65.9 nM.
Work on `CNC(=O)COC1CCc2c(-c3ccc(C(F)(F)F)cc3)cncc21` (racemic) [Example 100, (rac)-N-Methyl-2-(4-(4-(trifluoromethyl)phenyl)-6,7-dihydro-5H-cyclopenta[c]pyridin-7-yloxy)acetamide] yielded an EC50 (human CYP11B1) of 430 nM and an EC50 (CYP11B2) of 12.9 nM.
For `CN(C)C(=O)COC1CCc2c(-c3ccc(C(F)(F)F)cc3)cncc21` (racemic) [Example 101, (rac)-N,N-Dimethyl-2-(4-(4-(trifluoromethyl)phenyl)-6,7-dihydro-5H-cyclopenta[c]pyridin-7-yloxy)acetamide], the EC50 (human CYP11B1) was 1270 nM and the EC50 (CYP11B2) was 26.9 nM.
For `NC(=O)COC1CCc2c(-c3ccc(C(F)(F)F)cc3)cncc21` (racemic) [Example 102, (rac)-2-(4-(4-(Trifluoromethyl)phenyl)-6,7-dihydro-5H-cyclopenta[c]pyridin-7-yloxy)acetamide], the EC50 (human CYP11B1) was 40.8 nM and the EC50 (CYP11B2) was 1.1 nM.
`CC1(COC2CCc3c(-c4ccc(C(F)(F)F)cc4)cncc32)COC1` (racemic) [Example 103, (rac)-7-((3-Methyloxetan-3-yl)methoxy)-4-(4-(trifluoromethyl)phenyl)-6,7-dihydro-5H-cyclopenta[c]pyridine] gave an EC50 (human CYP11B1) of 2.3 nM and an EC50 (CYP11B2) of 0.2 nM.
Molecule `OC1CCCc2c(-c3ccc(C(F)(F)F)cc3)cncc21` (racemic) [Example 104, (rac)-4-(4-(Trifluoromethyl)phenyl)-5,6,7,8-tetrahydroisoquinolin-8-ol] has an EC50 (human CYP11B1) of 710 nM and an EC50 (CYP11B2) of 14.6 nM.
With `CCC(=O)N[C@@H]1c2cncc(-c3ccc(C(F)(F)F)cc3)c2CC[C@H]1C` (single isomer, unassigned) [Example 67, N-[(7R,8S or 7S,8R)-7-Methyl-4-(4-trifluoromethyl-phenyl)-5,6,7,8-tetrahydro-isoquinolin-8-yl]-propionamide] the EC50 (human CYP11B1) was 8470 nM and the EC50 (CYP11B2) was 764 nM.
